Test results: ChEMBL document CHEMBL1141299, “Hologram QSAR model for the prediction of human oral bioavailability” (Bioorg Med Chem, 2007)

tested on: not listed separately; experiment: (§1) Oral bioavailability in human; conditions: in vivo

SMILES	bioavailability [%]
C[C@@H]1O[C@@H](O[C@@H]2C=C3CC[C@@H]4[C@H](CC[C@]5(C)[C@@H](c6ccc(=O)oc6)CC[C@]45O)[C@@]3(C)CC2)[C@H](O)[C@H](O)[C@H]1O [PROSCILLARIDIN]	7
O=C(O)[C@@H]1N=C(c2ccccc2)c2cc(Cl)ccc2NC1=O	91
CCCCCc1cc(O)c2c(c1)OC(C)(C)[C@@H]1CCC(C)=C[C@@H]21 [DRONABINOL]	15

same assay, conditions: in vivo, F

SMILES	bioavailability [%]
N/N=c1/cc2c(n[nH]1)CCN(C(=O)c1ccccc1)C2 [ENDRALAZINE]	75
Cc1cccc(C)c1OC[C@H](C)N [(S)-MEXILETINE]	87
C[C@H](O)Cn1cnc2c1c(=O)n(C)c(=O)n2C [(S)-PROXYPHYLLINE]	100
CCCN(CCC)CCc1cccc2c1CC(=O)N2 [ROPINIROLE]	55
N[C@@H](C(=O)N[C@@H]1C(=O)N2C(C(=O)O)=C(Cl)CS[C@H]12)c1ccccc1 [CEFACLOR ANHYDROUS]	90
CNS(=O)(=O)CCc1ccc2[nH]cc(C3CCN(C)CC3)c2c1	67.5
COc1ccc(CCN(C)CCCC2(c3ccc(OC)c(OC)c3)S(=O)(=O)CCCS2(=O)=O)cc1OC	22
CO[C@H]1C[C@@H]2CC[C@@H](C)[C@@](O)(O2)C(=O)C(=O)N2CCCC[C@H]2C(=O)O[C@H]([C@H](C)C[C@@H]2CC[C@@H](O)[C@H](OC)C2)CC(=O)[C@H](C)/C=C(\C)[C@@H](O)[C@@H](OC)C(=O)[C@H](C)C[C@H](C)/C=C/C=C/C=C/1C [SIROLIMUS]	14
CC(C)NC[C@H](O)COc1ccc(OCCOCC2CC2)cc1	100
C[C@]12C=CC(=O)C=C1CC[C@@H]1[C@@H]2[C@@H](O)C[C@@]2(C)[C@H]1CC[C@]2(O)C(=O)COP(=O)(O)O [PREDNISOLONE PHOSPHORIC ACID]	82
CN(C)CCCN1c2ccccc2CCc2ccccc21 [IMIPRAMINE]	42
CCN(CC)CCC[C@@H](C)Nc1ccnc2cc(Cl)ccc12 [(R)-CHLOROQUINE]	80

tested on: Homo sapiens; experiment: as §1; conditions: in vivo

SMILES	F [%]
O=C(NC[C@H]1CCCCN1)c1cc(OCC(F)(F)F)ccc1OCC(F)(F)F (stereo in doubt; 083) [(R)-FLECAINIDE]	95
O=C(NC[C@H]1CCCCN1)c1cc(OCC(F)(F)F)ccc1OCC(F)(F)F (stereo in doubt; 268) [(R)-FLECAINIDE]	70
C[C@H]1COc2c(N3CCN(C)CC3)c(F)cc3c(=O)c(C(=O)O)cn1c23.C[C@H]1COc2c(N3CCN(C)CC3)c(F)cc3c(=O)c(C(=O)O)cn1c23.O (stereo in doubt; 162) [LEVOFLOXACIN]	97.5
